The first assay concerns LC-2-ad. The assay is described as follows: relative viability (nuclei count vs DMSO), 5 days (fraction); higher = more cells survive. The conditions noted are these: first compound 2 µM. The method in brief: (§1)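 Values are medians from duplicate plates. Each reflects relative viability, defined as the nuclei count of treated wells over that of vehicle wells. Lung cancer cell lines in 1536-well plates were pin-tool dosed one day after seeding with one drug alone or with a fixed anchor-drug dose plus five library-drug doses (not always all listed) in √10 steps, then fixed, stained and imaged at 4× after 5 days.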
`COCC1(CO)C(=O)C2CCN1CC2` (stereo not given) [PRIMA-1MET] + CS(=O)(=O)N1CCN(Cc2cc3nc(-c4cccc5[nH]ncc45)nc(N4CCOCC4)c3s2)CC1 [Pictilisib] (partner 1 µM) registered a relative viability of 0.321.

`COCC1(CO)C(=O)C2CCN1CC2` (stereo not given) [PRIMA-1MET] + CCNC(=O)c1noc(-c2cc(C(C)C)c(O)cc2O)c1-c1ccc(CN2CCOCC2)cc1 [Luminespib] (partner 0.01 µM) returned a relative viability of 0.902.

Consider `COCC1(CO)C(=O)C2CCN1CC2` (stereo not given) [PRIMA-1MET] + CC(=O)c1c(C)c2cnc(Nc3ccc(N4CCNCC4)cn3)nc2n(C2CCCC2)c1=O [Palbociclib] (partner 0.5 µM), for which the relative viability was determined as 0.525.

In the case of `COCC1(CO)C(=O)C2CCN1CC2` (stereo not given) [PRIMA-1MET] + Cc1nc(Nc2ncc(C(=O)Nc3c(C)cccc3Cl)s2)cc(N2CCN(CCO)CC2)n1 [Dasatinib] (partner 0.075 µM), the relative viability turned out to be 0.472.

The same assay, now with this note: first compound 6.325 µM.
As to `COCC1(CO)C(=O)C2CCN1CC2` (stereo not given) [PRIMA-1MET] + CS(=O)(=O)N1CCN(Cc2cc3nc(-c4cccc5[nH]ncc45)nc(N4CCOCC4)c3s2)CC1 [Pictilisib] (partner 1 µM), the relative viability came out at 0.468.

The molecule `COCC1(CO)C(=O)C2CCN1CC2` (stereo not given) [PRIMA-1MET] + CCNC(=O)c1noc(-c2cc(C(C)C)c(O)cc2O)c1-c1ccc(CN2CCOCC2)cc1 [Luminespib] (partner 0.01 µM) came in with a relative viability of 1.16.

In turn, `COCC1(CO)C(=O)C2CCN1CC2` (stereo not given) [PRIMA-1MET] + CC(=O)c1c(C)c2cnc(Nc3ccc(N4CCNCC4)cn3)nc2n(C2CCCC2)c1=O [Palbociclib] (partner 0.5 µM) gave a relative viability of 0.457.

`COCC1(CO)C(=O)C2CCN1CC2` (stereo not given) [PRIMA-1MET] + Cc1nc(Nc2ncc(C(=O)Nc3c(C)cccc3Cl)s2)cc(N2CCN(CCO)CC2)n1 [Dasatinib] (partner 0.075 µM) had a relative viability of 0.584.

Still in this assay, the particulars now being: first compound 20 µM.
In the case of `COCC1(CO)C(=O)C2CCN1CC2` (stereo not given) [PRIMA-1MET] + CS(=O)(=O)N1CCN(Cc2cc3nc(-c4cccc5[nH]ncc45)nc(N4CCOCC4)c3s2)CC1 [Pictilisib] (partner 1 µM), the relative viability was found to be 0.421.

As for `COCC1(CO)C(=O)C2CCN1CC2` (stereo not given) [PRIMA-1MET] + CCNC(=O)c1noc(-c2cc(C(C)C)c(O)cc2O)c1-c1ccc(CN2CCOCC2)cc1 [Luminespib] (partner 0.01 µM), the relative viability came out at 0.887.

In turn, `COCC1(CO)C(=O)C2CCN1CC2` (stereo not given) [PRIMA-1MET] + CC(=O)c1c(C)c2cnc(Nc3ccc(N4CCNCC4)cn3)nc2n(C2CCCC2)c1=O [Palbociclib] (partner 0.5 µM) returned a relative viability of 0.468.

`COCC1(CO)C(=O)C2CCN1CC2` (stereo not given) [PRIMA-1MET] + Cc1nc(Nc2ncc(C(=O)Nc3c(C)cccc3Cl)s2)cc(N2CCN(CCO)CC2)n1 [Dasatinib] (partner 0.075 µM) displayed a relative viability of 0.508.

The subject of another assay is NCI-H1734. Described as above. The following applies: first compound 0.2 µM. The method in brief: as §1
Molecule `COCC1(CO)C(=O)C2CCN1CC2` (stereo not given) [PRIMA-1MET] + CS(=O)(=O)N1CCN(Cc2cc3nc(-c4cccc5[nH]ncc45)nc(N4CCOCC4)c3s2)CC1 [Pictilisib] (partner 1 µM) gave a relative viability of 0.446.

Molecule `COCC1(CO)C(=O)C2CCN1CC2` (stereo not given) [PRIMA-1MET] + CCNC(=O)c1noc(-c2cc(C(C)C)c(O)cc2O)c1-c1ccc(CN2CCOCC2)cc1 [Luminespib] (partner 0.01 µM) came in with a relative viability of 0.214.

Molecule `COCC1(CO)C(=O)C2CCN1CC2` (stereo not given) [PRIMA-1MET] + CC(=O)c1c(C)c2cnc(Nc3ccc(N4CCNCC4)cn3)nc2n(C2CCCC2)c1=O [Palbociclib] (partner 0.5 µM) had a relative viability of 0.362.

Regarding `COCC1(CO)C(=O)C2CCN1CC2` (stereo not given) [PRIMA-1MET] + Cc1nc(Nc2ncc(C(=O)Nc3c(C)cccc3Cl)s2)cc(N2CCN(CCO)CC2)n1 [Dasatinib] (partner 0.075 µM), the relative viability is 0.498.

The same assay, now with this note: first compound 0.6325 µM.
As to `COCC1(CO)C(=O)C2CCN1CC2` (stereo not given) [PRIMA-1MET] + CS(=O)(=O)N1CCN(Cc2cc3nc(-c4cccc5[nH]ncc45)nc(N4CCOCC4)c3s2)CC1 [Pictilisib] (partner 1 µM), the relative viability was 0.465.

For the molecule `COCC1(CO)C(=O)C2CCN1CC2` (stereo not given) [PRIMA-1MET] + CCNC(=O)c1noc(-c2cc(C(C)C)c(O)cc2O)c1-c1ccc(CN2CCOCC2)cc1 [Luminespib] (partner 0.01 µM), the relative viability was 0.18.

The molecule `COCC1(CO)C(=O)C2CCN1CC2` (stereo not given) [PRIMA-1MET] + CC(=O)c1c(C)c2cnc(Nc3ccc(N4CCNCC4)cn3)nc2n(C2CCCC2)c1=O [Palbociclib] (partner 0.5 µM) had a relative viability of 0.306.

Regarding `COCC1(CO)C(=O)C2CCN1CC2` (stereo not given) [PRIMA-1MET] + Cc1nc(Nc2ncc(C(=O)Nc3c(C)cccc3Cl)s2)cc(N2CCN(CCO)CC2)n1 [Dasatinib] (partner 0.075 µM), the relative viability was 0.303.

Still in this assay, the particulars now being: first compound 2 µM.
The molecule `COCC1(CO)C(=O)C2CCN1CC2` (stereo not given) [PRIMA-1MET] + CS(=O)(=O)N1CCN(Cc2cc3nc(-c4cccc5[nH]ncc45)nc(N4CCOCC4)c3s2)CC1 [Pictilisib] (partner 1 µM) displayed a relative viability of 0.408.

Molecule `COCC1(CO)C(=O)C2CCN1CC2` (stereo not given) [PRIMA-1MET] + CCNC(=O)c1noc(-c2cc(C(C)C)c(O)cc2O)c1-c1ccc(CN2CCOCC2)cc1 [Luminespib] (partner 0.01 µM) had a relative viability of 0.192.

`COCC1(CO)C(=O)C2CCN1CC2` (stereo not given) [PRIMA-1MET] + CC(=O)c1c(C)c2cnc(Nc3ccc(N4CCNCC4)cn3)nc2n(C2CCCC2)c1=O [Palbociclib] (partner 0.5 µM) yielded a relative viability of 0.369.

For `COCC1(CO)C(=O)C2CCN1CC2` (stereo not given) [PRIMA-1MET] + Cc1nc(Nc2ncc(C(=O)Nc3c(C)cccc3Cl)s2)cc(N2CCN(CCO)CC2)n1 [Dasatinib] (partner 0.075 µM), the relative viability came out at 0.426.

Staying with this assay, now noted: first compound 6.325 µM.
In turn, `COCC1(CO)C(=O)C2CCN1CC2` (stereo not given) [PRIMA-1MET] + CS(=O)(=O)N1CCN(Cc2cc3nc(-c4cccc5[nH]ncc45)nc(N4CCOCC4)c3s2)CC1 [Pictilisib] (partner 1 µM) yielded a relative viability of 0.386.

These data come from the supplement of paper PMC10307832.
